The target of data set [1] is T1, Tubulin (Sus scrofa, UniProt P02550+P02554).
T1 construct: Tubulin is purified from pig brain according to published methods; from tissue; host or cells: pig brain
Kind of data set: Evaluation of the inhibition of tubulin polymerization (turbidimetry at 350 nm). The settings on record: concentration that inhibits the rate of polymerization by 50%; pig brain tubulin 10 μM. The class given is biochemical. As for the experimental part: Briefly, the brains are ground and centrifuged in an extraction buffer. The tubulin contained in the supernatant of the extract undergoes two successive cycles of polymerization at 37° C. and depolymerization at 4° C., before being separated from the MAPs (Microtubule Associated Proteins) by chromatography on a phosphocellulose P11 column (Whatman). […] It is stored in a buffer known as RB/2 30% glycerol, the composition of which is 50 mM MES-NaOH [2-(N-morpholino)ethanesulphonic acid], pH 6.8; 0.25 mM MgCl2; 0.5 mM EGTA; 30% glycerol (v/v), 0.2 mM GTP (guanosine-5′-triphosphate).
The polymerization of tubulin to microtubules is monitored by turbidimetry as follows: the tubulin is adjusted to a concentration of 10 μM (1 mg/ml) in RB/2 30% glycerol buffer to which 1 mM GTP and 6 mM MgCl2 are added. […] The increase in the turbidity of the solution is monitored at 350 nm.
The products are dissolved at 10 mM in DMSO and added at variable concentrations (0.5 to 10 μM) to the tubulin solution before polymerization.

The test system of data set [2] is HDMEC cells (Human Dermal Microvascular Endothelial Cells). Kind of data set: Detachment of endothelial cells in vitro (test for determining the inhibition of vascularization). The class given is cell-based. The settings on record: two hours of treatment, relative to control (untreated cells); for inhibition at 1 µM: Homo sapiens, Endothelial cell, 2 h. From the text: A test for determining the detachment of the endothelial cells was developed in order to select the products with regard to their “in vitro” activity. This test for determining the detachment of endothelial cells is characterized in that the endothelial cells, inoculated into plates whose bottom is covered with a binder preferably chosen from gelatin, fibronectin and vitronectin, after culturing, are supplemented with a medium containing the test compound, and the cells are then labelled with a fluorescent substance, the cells which have become detached are removed by washing and the fluorescence of the remaining cells is counted in a fluorimeter.
This test consists in measuring the detachment of endothelial cells cultured on substrata based on a binder preferably chosen from fibronectin, vitronectin and gelatin. Preferably, a day after the inoculation of the cells in plates containing, for example, 96 wells, the culture medium is replaced with a medium containing the test compound in the absence of serum. The same preparation is prepared six times at three different concentrations ([…]) and the control six times without addition of antivascular product. After two hours of treatment with the test substance, the cells are labelled with calcein-AM (1.6 μg/ml) in culture medium supplemented with 0.1% BSA. The cells that have become detached are removed by washing with the culture medium containing 0.1% bovine serum albumin; 100 μl of medium are added to each well. The fluorescence of the remaining cells is counted in a fluorimeter. The data obtained are expressed relative to the control (untreated cells).
The evaluation of the detachment of the endothelial cells in vitro is determined in the following manner. HDMEC cells (Human Dermal Microvascular Endothelial Cells, Promocell, c-122102) are cultured in an ECGM-MV medium that contains 5% foetal calf serum, growth factors (EGF 10 ng/ml, hydrocortisone 1 μg/ml, 0.4% growth supplement with heparin) and antibiotics (amphotericin 50 ng/ml, gentamycin 50 μg/ml). For the detachment test, the HDMECs are inoculated at a rate of 5 000 cells in clear-bottomed 96-well plates (Costar) precoated with fibronectin (10 μg/ml), vitronectin (1 μg/ml) or gelatin. Twenty-four hours later, the culture medium is replaced with ECGM-MV 0.1% BSA medium containing the products indicated. The concentrations tested are 0.1–0.3 and 1 μM for each product. After two hours of treatment, the cells are labelled for one hour with calcein (1.6 μg/ml, Molecular Probes) in ECGM-MV 0.1% BSA medium. The detached cells are then removed by washing with ECGM-MV 0.1% BSA medium; 100 μl of medium is added to each well. The fluorescence of the cells that remain attached to the substratum of the well is counted using a fluorimeter, Spectrafluor Plus (Tecan excitation 485 nm, and emission 535 nm). The data are the mean of six different samples and are expressed as the percentage of the control (untreated cells).
A cell detachment effect of greater than or equal to 15% is considered as significant.

T1 sequence (P02550 whole entry): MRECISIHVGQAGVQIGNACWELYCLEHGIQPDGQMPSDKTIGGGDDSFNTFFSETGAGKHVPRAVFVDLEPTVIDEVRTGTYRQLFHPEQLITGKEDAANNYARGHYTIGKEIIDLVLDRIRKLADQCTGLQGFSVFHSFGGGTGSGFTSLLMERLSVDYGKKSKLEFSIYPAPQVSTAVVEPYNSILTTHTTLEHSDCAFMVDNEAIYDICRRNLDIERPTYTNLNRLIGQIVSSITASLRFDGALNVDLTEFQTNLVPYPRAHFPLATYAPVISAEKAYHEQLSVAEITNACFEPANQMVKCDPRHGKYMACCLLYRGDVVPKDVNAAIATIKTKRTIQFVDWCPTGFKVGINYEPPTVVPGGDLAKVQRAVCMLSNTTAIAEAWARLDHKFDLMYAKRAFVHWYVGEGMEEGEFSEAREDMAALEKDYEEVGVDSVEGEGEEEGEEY
T1 sequence (P02554 whole entry): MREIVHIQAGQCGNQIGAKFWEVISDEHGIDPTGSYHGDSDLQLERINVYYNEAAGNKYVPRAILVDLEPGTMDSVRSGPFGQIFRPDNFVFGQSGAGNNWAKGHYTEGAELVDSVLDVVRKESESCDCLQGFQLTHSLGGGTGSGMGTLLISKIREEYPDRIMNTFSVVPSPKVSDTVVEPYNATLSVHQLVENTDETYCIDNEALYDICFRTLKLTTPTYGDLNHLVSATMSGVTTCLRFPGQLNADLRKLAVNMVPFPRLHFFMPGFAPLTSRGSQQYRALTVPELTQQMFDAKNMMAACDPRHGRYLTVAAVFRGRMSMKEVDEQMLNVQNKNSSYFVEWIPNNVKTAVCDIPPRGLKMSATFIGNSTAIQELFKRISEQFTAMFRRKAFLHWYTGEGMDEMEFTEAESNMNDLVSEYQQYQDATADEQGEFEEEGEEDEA

Regarding `CON=Cc1n[nH]c2c1C=CC(c1ccccc1)(c1ccccc1)C2` (mixture of isomers) [Example 6-4, 6,6-diphenyl-6,7-dihydro-1H-indazole-3-carbaldehyde O-methyloxime], the melting point (commonly the temperature, or range, at which the solid turns liquid) worked out at 184 °C. Also, the IC50 (usually the midpoint of a concentration-inhibition curve) in data set [1] is 6 µM.
On to `CCOC(=O)c1n[nH]c2c1C=CC(c1ccccc1)(c1ccc(F)cc1)C2` (racemic) [Example 10-3A, ethyl (R,S)-6-(4-fluorophenyl)-6-phenyl-6,7-dihydro-1H-indazole-3-carboxylate], for which, in data set [2], the inhibition (commonly the percentage by which the read-out fell short of the control) at 1 µM is 16%. For the same compound, it took 1.2 µM to reach half-maximal inhibition in data set [1] (IC50).
`ON=C(c1n[nH]c2c1C=CC(c1ccccc1)(c1ccccc1)C2)C1CC1` (single isomer, unassigned) [Example 6-1A, cyclopropyl(6,6-diphenyl-6,7-dihydro-1H-indazol-3-yl)methanone oxime] came in with an inhibition at 1 µM in data set [2] of 34%. In data set [1], it took 0.6 µM to reach half-maximal inhibition (IC50).
In data set [2], `CCOC(=O)c1n[nH]c2c1C=CC(c1ccccc1)(c1ccc(F)cc1)C2` (single isomer, unassigned) [Example 10-3B, ethyl 6-(4-fluorophenyl)-6-phenyl-6,7-dihydro-1H-indazole-3-carboxylate] came in with an inhibition at 1 µM of 19%. For the same compound, the IC50 in data set [1] is 1 µM.
For `ON=C(c1n[nH]c2c1C=CC(c1ccccc1)(c1ccc(F)cc1)C2)C1CC1` (single isomer, unassigned) [Example 10-5A], testing at 1 µM in data set [2] gave an inhibition of 25%. In data set [1], this compound showed an IC50 of 1 µM.
The like results for `CCOC(=O)c1[nH]nc2c1C=CC(c1ccccc1)(c1ccccc1)C2` [Example 1, Ethyl 6,6-diphenyl-6,7-dihydro-2H-indazole-3-carboxylate] were, in that order, 20% and 1.5 µM.
The like results for `O=C(NC1CC1)c1n[nH]c2c1C=CC(c1ccccc1)(c1ccccc1)C2` [Example 3-1, N-(cyclopropyl)-6,6-diphenyl-6,7-dihydro-1H-indazole-3-carboxamide] were, in that order, 20% and 2.5 µM.
`O=C(c1n[nH]c2c1C=CC(c1ccccc1)(c1ccccc1)C2)C1CC1` [Example 5-1, Cyclopropyl(6,6-diphenyl-6,7-dihydro-1H-indazol-3-yl)methanone]: in data set [2], the inhibition at 1 µM is 29%. Besides, in data set [1], half-maximal inhibition (IC50) was put at 0.8 µM.
In data set [2], `O=C(c1n[nH]c2c1C=CC(c1ccccc1)(c1ccccc1)C2)C1CCC1` [Example 5-2, Cyclobutyl(6,6-diphenyl-6,7-dihydro-1H-indazol-3-yl)methanone] returned an inhibition at 1 µM of 19%. This compound also registered an IC50 in data set [1] of 1.1 µM.
In the case of `ON=C(c1n[nH]c2c1C=CC(c1ccccc1)(c1ccccc1)C2)C1CCC1` [Example 6-2A, cyclobutyl(6,6-diphenyl-6,7-dihydro-1H-indazol-3-yl)methanone oxime], in data set [2], the inhibition at 1 µM turned out to be 18%. In data set [1], this compound gave an IC50 of 1 µM.
Regarding `CON=C(c1[nH]nc2c1C=CC(c1ccccc1)(c1ccccc1)C2)C1CC1` [Example 6-3A, cyclopropyl(6,6-diphenyl-6,7-dihydro-2H-indazol-3-yl)methanone O-methyloxime], in data set [2], at 1 µM the inhibition was 26%. The compound further gave an IC50 in data set [1] of 0.8 µM.
`C=CCO/N=C(\c1n[nH]c2c1C=CC(c1ccccc1)(c1ccccc1)C2)C1CC1` [Example 6-6A, cyclopropyl(6,6-diphenyl-6,7-dihydro-1H-indazol-3-yl)methanone O-allyloxime]: at 1 µM the inhibition in data set [2] was 17%. This compound also gave an IC50 in data set [1] of 1 µM.
In the case of `Cc1ccc(S(=O)(=O)n2nc(N)c3c2CC(c2ccccc2)(c2ccccc2)C=C3)cc1` [Example 7-1, 6,6-Diphenyl-1-(4-toluenesulphonyl)-6,7-dihydro-1H-indazol-3-ylamine], in data set [1], 6 µM corresponded to half-maximal inhibition (IC50).
Turning to `C=CC(=O)n1nc(N)c2c1CC(c1ccccc1)(c1ccccc1)C=C2` [Example 7-2, 1-(3-Amino-6,6-diphenyl-6,7-dihydroindazol-1-yl)propenone], in data set [2], the inhibition at 1 µM worked out at 25%. Moreover, half-maximal inhibition in data set [1] (IC50) was put at 5 µM.
In the case of `O=C(Nc1n[nH]c2c1C=CC(c1ccccc1)(c1ccccc1)C2)c1ccccc1` [Example 7-4, N-[6,6-Diphenyl-6,7-dihydro-1H-indazol-3-yl]benzamide], the inhibition at 1 µM in data set [2] was 18%. In data set [1], this compound had an IC50 of 6 µM.
Compound `Cc1noc(-c2n[nH]c3c2C=CC(c2ccccc2)(c2ccccc2)C3)n1` [Example 8-1, 3-(3-Methyl[1,2,4]oxadiazol-5-yl)-6,6-diphenyl-6,7-dihydro-1H-indazole] yielded an inhibition at 1 µM in data set [2] of 24%. For the same compound, inhibition in data set [1] was half-maximal at 9 µM (IC50).
As to `C1=CC(c2ccccc2)(c2ccccc2)Cc2[nH]nc(-c3ccccc3)c21` [Example 8-2, 3,6,6-Triphenyl-6,7-dihydro-1H-indazole], it took 1 µM to reach half-maximal inhibition in data set [1] (IC50).
In data set [1], `C1=CC(c2ccccc2)(c2ccccc2)Cc2[nH]nc(-c3cccnc3)c21` [Example 8-3, 6,6-Diphenyl-3-pyrid-3-yl-6,7-dihydro-1H-indazole] had an IC50 of 6 µM.
The same measure, in the same setting: with `C1=CC(c2ccccc2)(c2ccccc2)Cc2[nH]nc(-c3ccsc3)c21` [Example 8-4, 6,6-Diphenyl-3-thiophen-3-yl-6,7-dihydro-1H-indazole] the figure was 1.2 µM.
Regarding `CCOC(=O)c1n[nH]c2c1C=CC(c1ccc(OC)cc1)(c1ccc(OC)cc1)C2` [Example 10-1, Ethyl 6,6-bis(4-methoxyphenyl)-6,7-dihydro-1H-indazole-3-carboxylate], the IC50 in data set [1] lay within 15 to 20 µM.
As to `CCOC(=O)c1n[nH]c2c1C=CC(c1ccc(F)cc1)(c1ccc(F)cc1)C2` [Example 10-6, Ethyl 6,6-bis(4-fluorophenyl)-6,7-dihydro-1H-indazole-3-carboxylate], the IC50 in data set [1] came to 1 µM.
Turning to `O=C(c1n[nH]c2c1C=CC(c1ccc(F)cc1)(c1ccc(F)cc1)C2)C1CC1` [Example 10-7, Cyclopropyl[6,6-bis(4-fluorophenyl)-6,7-dihydro-1H-indazol-3-yl]methanone], in data set [2], 1 µM produced 24% inhibition. The compound further had an IC50 in data set [1] of 1 µM.
The like results for `O/N=C(\c1n[nH]c2c1C=CC(c1ccc(F)cc1)(c1ccc(F)cc1)C2)C1CC1` [Example 10-8A, cyclopropyl[6,6-bis(4-fluorophenyl)-6,7-dihydro-1H-indazol-3-yl]methanone oxime] were, in that order, 17% and 1.5 µM.
Turning to `CCOC(=O)c1[nH]cc2c1C=CC(c1ccccc1)(c1ccccc1)C2` [Example 11, Ethyl 5,5-diphenyl-4,5-dihydro-2H-isoindole-1-carboxylate], the IC50 in data set [1] is 6.5 µM.
`CCOC(=O)c1c[nH]c2c1C=CC(c1ccccc1)(c1ccccc1)C2` [Example 12, Ethyl 6,6-diphenyl-6,7-dihydro-1H-indole-3-carboxylate]: the inhibition at 1 µM in data set [2] stood at 17%. In data set [1], this compound had an IC50 of 2 µM.
`CCOC(=O)c1n[nH]c2c1C=CC(c1ccccc1)(c1ccccc1)C2C` (stereo not shown) [Example 13, Ethyl 7-methyl-6,6-diphenyl-6,7-dihydro-1H-indazole-3-carboxylate]: in data set [1], half-maximal inhibition (IC50) required 1.5 µM.
With “(R,S)-cyclopropyl[6-(4-fluorophenyl)-6-phenyl-6,7-dihydro-1H-indazol-3-yl]methanone [Example 10-4A]”, the “% detachment 1 μM” value in data set [2] amounted to 33%. For the same compound, in data set [1], it took 1 µM to reach half-maximal inhibition (IC50).

The record behind these values is patent US7119115B2, “Indazole or indole derivatives, and use thereof in human medicine and more particularly in oncology” (Aventis Pharma S.A., priority 2001, dated 2006).
